In patent US5470860A, “1,4-dihydropyridines for use in the treatment of dermatoses” (Byk Gulden Lomberg Chemische Fabrik GmbH, priority 1991, dated 1995):

What was measured:
[1] = system: human keratinocytes; assay: cells; conditions: Keratinocyte, 264 h, read-out: average inhibitory concentration (IC50)
Protocol: To determine the action, firstly human keratinocytes from the preputial skin of neonates after the 1st passage are distributed in MCDB153 medium in 96-well microtiter plates (2×10^3 cells/well) and the compound given below is added in concentrations of from 10^-10 to 10^-5 M, blank controls containing only the solubilizer DMSO (1%). The period of incubation is 11 days, and after another 2 days in each case there is a change of medium followed by renewed addition of substance.
To determine the rate of cell reproduction, incubation is carried out for 1 h with 4-methylumbelliferyl heptanoate (MUH) according to the method described by R. Stadler et al., Journal of Investigative Dermatology 93, 532-534, 1989, after which the fluorescence intensity is measured using a Titertek Fluoroskan.
4 experiments were carried out, in each case with 4 wells/concentration.

[2] = system: human transformed keratinocytes (HaCat); assay: cells; conditions: 72 h
Protocol: In a second cell reproduction test, human transformed keratinocytes (HaCat) are employed which are cultured in DMEM culture medium with an addition of 10% calf serum. Cells which have grown to confluence beforehand are isolated with trypsin and distributed in 6-well plates in a density of 40×10^3.
The test substance is added 24 h after distribution and after incubation for a further 72 h the cell count is determined using a Coulter counter. Controls are incubated without further additions or with the addition of the solubilizer polyethylene glycol 400 (0.05%).
Evaluation was made in each case for 6 wells/concentration.

[3] = read-out: % inhibition of growth

`COC(=O)C1=C(C)NC(C)=C(C(=O)OCCCN2CCC(c3ccccc3)(c3ccccc3)CC2)C1c1cccc([N+](=O)[O-])c1` (single isomer, unassigned) [Compound 1, 3-methyl 5-[3-(4,4-diphenyl-1-piperidyl)propyl] (-)-1,4-dihydro-2,6-dimethyl-4-(3-nitrophenyl)pyridine-3,5-dicarboxylate] showed an IC50 [1] of 88 nM, an inhibition at 1 µM [2, 3] of 60% and an inhibition at 10 µM [2, 3] of 96%. For the same molecule, the IC50 ([2]; read-out: inhibitory concentration (IC50)) was 520 nM.
